From patent US5336769A, “Xanthine derivatives” (Kyowa Hakko Kogyo Co., Ltd., priority 1992, dated 1994)

How the values were obtained:
dd strain male mice = experiment: Acute Toxicity Test, minimum lethal dose (MLD); assay type: in vivo; conditions: oral, mortality 7 days after administration
Excerpt: Compounds 1 and 5 were orally administered to dd strain male mice (body weight: 20±1 g, 3 mice/group). The mortality was observed 7 days after the administration to determine the minimum lethal dose (MLD).

[1] = system: scopolamine-induced amnesia models; experiment: Anti-dementia effect in scopolamine-induced amnesia models, step-through type passive avoidance (recall trial); assay type: in vivo, Male Wistar rats; conditions: oral, scopolamine 1 mg/kg i.p., 24 h after acquisition trial
Procedure: The effect of Compound (I) on dementia was determined by scopolamine-induced amnesia models (Basic, Clinical, and Therapeutic Aspects of Alzheimer's and Parkinson's Diseases: Vol. 2; T. Nagatsu, et al. edt; pp449; Plenum Press New York; 1990).
[…] The test was performed with a step-through type passive avoidance apparatus (the bright and dark box).
The bright and dark box was made up of a bright compartment (25×25×25 cm) lighted by 4W white fluorescent light and a dark compartment (25×25×25 cm). […] In order to give a foot shock, the electric current (2 mA: 2 sec) may be passed through the grid floor of the dark compartment.
The compound to be tested was suspended in 0.3% aqueous solution of carboxymethyl cellulose (CMC) and the suspension was orally administered 60 minutes before the acquisition trial. Only 0.3% CMC was given to the control group.
Amnesia-inducing treatment was carried out by intraperitoneally administering 1 mg/kg of scopolamine 30 minutes before the following acquisition trial.
The training for acquisition of learning (acquisition trial) was carried out. The rat was introduced into the bright compartment, and after 5 to 10 seconds, the guillotine door was opened. The rat in the bright compartment rapidly moved into the dark compartment. As soon as the whole body of the rat entered the dark compartment, the guillotine door was closed and an electric current of 2 mA was passed through the grid floor for two seconds (foot shock). Immediately after the foot shock, the rat was taken out of the dark compartment.
The test trial for observing the retention and recall of the memory (recall trial) was carried out as follows. Twenty-four hours after the acquisition trial, the rat was placed in the bright compartment and the guillotine door was opened. The length of time before the rat entered the dark compartment (latency) was measured. The latency was measured up to 600 seconds and the latency longer than 600 seconds was recorded as 600 seconds.
In the experiment, the amnesia control group had undergone the amnesia-inducing treatment and the normal control group had not undergone the amnesia-inducing treatment.
The anti-dementia effect was evaluated by Mann Whitney U-test to determine whether there was a significant difference in latency between the test compound treated group and the amnesia control group.

| Structure (SMILES) | minimum lethal dose (MLD) (dd strain male mice) [mg/kg] | Recall trial mean reaction latency ([1]; 0.02 mg/Kg, 17 animals) [s] | Recall trial mean reaction latency ([1]; 0.08 mg/Kg, 18 animals) [s] | Recall trial mean reaction latency ([1]; 0.31 mg/Kg, 18 animals) [s] | Recall trial mean reaction latency ([1]; 1.25 mg/Kg, 17 animals) [s] | Recall trial mean reaction latency ([1]; 5.0 mg/Kg, 18 animals) [s] | Recall trial mean reaction latency ([1]; 20.0 mg/Kg, 17 animals) [s] |
| --- | --- | --- | --- | --- | --- | --- | --- |
| CCCn1c(=O)c2nc(C3CCCC3)[nH]c2n(CCc2ccc(NC(C)=O)cc2)c1=O [Compound 1, 3-(4-acetylaminophenethyl)-8-cyclopentyl 1-propylxanthine] | > 300 | 137.3 ± 44.5 | 174.8 ± 56.1 | 130.4 ± 38.5 | 170.3 ± 50.4 | 187.2 ± 50.2 | 116.2 ± 43.4 |
| CCCn1c(=O)c2[nH]c(C3CCCC3)nc2n(CCc2ccc(NC(=O)C3CCCC3)cc2)c1=O [Compound 5, 3-[4-(cyclopentanecarbonylamino)-phenethyl]-8-cyclopentyl-1-propylxanthine] | > 300 |  |  |  |  |  |  |
